Data reported in patent US6476022B1, “Oxathiepino[6,5-b]dihydropyridines, and related compositions and methods” (Ortho-McNeil Pharmaceutical, Inc., priority 1999, dated 2002).

Molecular target: T1, calcium channel (3H-nitrendipine binding, heart membranes) (Oryctolagus cuniculus, UniProt P15381)
T1 construct: from tissue; host or cells: rabbit heart (crude membrane pellet)
Assay: Assay for inhibition of nitrendipine binding (3H-nitrendipine, rabbit heart membranes)
Conditions: 3H-nitrendipine 0.05-0.50 nM, 90 minutes at 4° C., compounds of Formula I (Table 1)
Experimental: Female, New Zealand white rabbits (1-2 kg) are sacrificed by cervical dislocation, and the heart is immediately removed, cleaned and chopped into small pieces. The tissue is homogenized in 5×volume of 0.05M Hepes buffer, pH 7.4. The homogenate is centrifuged at 4000 g for 10 minutes, and the supernatant is re-centrifuged at 42,000 g for 90 minutes. The resulting membrane pellet is resuspended (0.7 ml/g weight) in 0.05M Hepes, pH 7.4 and stored at […] until used. Each tube of the binding assay contains ^3H-nitrendipine (0.05-0.50 nM), buffer, membranes (0.10 ml ), and test compound in a total volume of 1.0 ml . After 90 minutes at 4° C., the bound nitrendipine is separated from the unbound by filtration on Whatman GF/C filters. After rinsing, the filters are dried and counted in a liquid scintillation counter.
Non-specifically bound ^3H-nitrendipine (i.e., the amount bound in the presence of excess unlabelled nitrendipine) is subtracted from the total bound to obtain specifically-bound radiolabeled nitrendipine. The amount of specifically-bound nitrendipine in the presence of a test compound is compared to the amount bound in the absence of the compound. A percent displacement (or inhibition) can then be obtained.

T1 sequence (P15381 whole entry, other chains not shown): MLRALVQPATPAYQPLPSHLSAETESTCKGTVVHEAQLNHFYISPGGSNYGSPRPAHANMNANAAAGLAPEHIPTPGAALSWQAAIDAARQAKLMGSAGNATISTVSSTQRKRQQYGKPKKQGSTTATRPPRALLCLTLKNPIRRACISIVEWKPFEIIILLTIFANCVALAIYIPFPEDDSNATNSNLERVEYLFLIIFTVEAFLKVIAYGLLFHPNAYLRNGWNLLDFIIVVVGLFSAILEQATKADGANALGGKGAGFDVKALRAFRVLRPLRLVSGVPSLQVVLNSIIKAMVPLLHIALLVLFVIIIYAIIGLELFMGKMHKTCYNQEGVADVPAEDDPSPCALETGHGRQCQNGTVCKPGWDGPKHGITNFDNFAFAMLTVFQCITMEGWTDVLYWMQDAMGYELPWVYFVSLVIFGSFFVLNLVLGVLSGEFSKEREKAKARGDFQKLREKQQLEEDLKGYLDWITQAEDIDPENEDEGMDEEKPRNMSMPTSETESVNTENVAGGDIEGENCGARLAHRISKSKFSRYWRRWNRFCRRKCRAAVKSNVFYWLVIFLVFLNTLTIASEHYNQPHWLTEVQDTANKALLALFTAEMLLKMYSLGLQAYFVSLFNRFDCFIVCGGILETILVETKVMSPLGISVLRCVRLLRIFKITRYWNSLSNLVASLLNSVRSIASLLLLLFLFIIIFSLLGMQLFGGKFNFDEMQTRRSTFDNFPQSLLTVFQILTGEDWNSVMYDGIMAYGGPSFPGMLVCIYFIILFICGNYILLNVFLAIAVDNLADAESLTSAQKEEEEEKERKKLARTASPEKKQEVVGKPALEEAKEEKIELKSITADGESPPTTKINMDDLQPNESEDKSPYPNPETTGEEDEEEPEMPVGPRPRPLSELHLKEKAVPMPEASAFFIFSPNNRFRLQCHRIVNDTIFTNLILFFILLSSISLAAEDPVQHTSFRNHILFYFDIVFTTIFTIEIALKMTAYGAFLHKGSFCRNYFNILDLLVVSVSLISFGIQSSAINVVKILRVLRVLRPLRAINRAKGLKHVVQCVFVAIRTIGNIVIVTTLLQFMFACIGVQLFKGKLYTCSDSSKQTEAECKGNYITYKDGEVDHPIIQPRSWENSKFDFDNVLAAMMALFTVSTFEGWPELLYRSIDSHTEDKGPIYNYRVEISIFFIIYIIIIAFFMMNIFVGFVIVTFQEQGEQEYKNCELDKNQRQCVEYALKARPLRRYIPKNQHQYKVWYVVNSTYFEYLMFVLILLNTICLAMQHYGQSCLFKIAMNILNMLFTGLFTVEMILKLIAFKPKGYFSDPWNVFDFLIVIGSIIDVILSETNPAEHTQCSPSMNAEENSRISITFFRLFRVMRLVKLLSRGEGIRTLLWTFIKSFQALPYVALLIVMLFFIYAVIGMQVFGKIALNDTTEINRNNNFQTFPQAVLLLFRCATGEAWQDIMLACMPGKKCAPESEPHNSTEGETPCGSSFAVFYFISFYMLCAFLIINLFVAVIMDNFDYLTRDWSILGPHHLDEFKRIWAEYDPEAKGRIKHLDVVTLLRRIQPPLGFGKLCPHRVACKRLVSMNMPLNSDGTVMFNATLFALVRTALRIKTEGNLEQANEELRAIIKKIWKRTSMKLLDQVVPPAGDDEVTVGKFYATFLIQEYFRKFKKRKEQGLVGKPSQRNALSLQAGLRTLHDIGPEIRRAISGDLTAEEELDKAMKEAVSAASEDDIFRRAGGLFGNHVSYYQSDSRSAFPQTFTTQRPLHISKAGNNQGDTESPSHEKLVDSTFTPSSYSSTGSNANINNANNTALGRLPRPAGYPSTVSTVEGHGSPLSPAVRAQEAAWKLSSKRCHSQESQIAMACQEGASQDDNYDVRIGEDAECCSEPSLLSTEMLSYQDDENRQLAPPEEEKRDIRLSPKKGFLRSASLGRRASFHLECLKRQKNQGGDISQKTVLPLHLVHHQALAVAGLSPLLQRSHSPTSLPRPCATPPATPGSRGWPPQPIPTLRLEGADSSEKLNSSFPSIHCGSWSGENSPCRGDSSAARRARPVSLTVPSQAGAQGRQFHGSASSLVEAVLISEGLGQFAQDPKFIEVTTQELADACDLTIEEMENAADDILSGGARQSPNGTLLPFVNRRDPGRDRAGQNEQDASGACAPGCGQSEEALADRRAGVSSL
T1 sequence (P13806 27-960 partner limits assumed, other chains not shown): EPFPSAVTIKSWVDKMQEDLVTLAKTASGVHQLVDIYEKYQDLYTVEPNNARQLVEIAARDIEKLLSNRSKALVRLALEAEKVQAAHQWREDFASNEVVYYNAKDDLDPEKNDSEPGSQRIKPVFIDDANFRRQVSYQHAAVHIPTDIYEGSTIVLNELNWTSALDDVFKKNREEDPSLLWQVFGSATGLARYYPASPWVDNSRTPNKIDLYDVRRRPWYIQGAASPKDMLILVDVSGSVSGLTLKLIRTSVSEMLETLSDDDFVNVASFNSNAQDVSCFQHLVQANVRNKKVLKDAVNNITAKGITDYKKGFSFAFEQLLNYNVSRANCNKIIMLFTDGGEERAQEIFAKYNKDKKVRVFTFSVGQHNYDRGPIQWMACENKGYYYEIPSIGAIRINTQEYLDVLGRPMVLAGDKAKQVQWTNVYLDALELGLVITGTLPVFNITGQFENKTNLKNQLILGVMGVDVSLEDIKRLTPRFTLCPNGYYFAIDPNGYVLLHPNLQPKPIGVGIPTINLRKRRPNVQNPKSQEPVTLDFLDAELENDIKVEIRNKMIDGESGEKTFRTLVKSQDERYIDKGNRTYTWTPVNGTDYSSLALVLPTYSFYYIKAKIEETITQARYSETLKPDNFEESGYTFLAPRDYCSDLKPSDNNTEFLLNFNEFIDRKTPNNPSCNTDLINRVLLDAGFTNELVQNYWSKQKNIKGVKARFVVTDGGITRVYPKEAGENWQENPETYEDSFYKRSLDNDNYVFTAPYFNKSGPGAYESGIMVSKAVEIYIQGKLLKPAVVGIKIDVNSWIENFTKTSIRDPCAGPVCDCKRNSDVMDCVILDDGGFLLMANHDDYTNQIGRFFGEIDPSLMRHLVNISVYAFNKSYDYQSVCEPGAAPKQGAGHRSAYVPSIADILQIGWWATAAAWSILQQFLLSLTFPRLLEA
T1 sequence (P13806 961-1106 partner limits assumed, other chains not shown): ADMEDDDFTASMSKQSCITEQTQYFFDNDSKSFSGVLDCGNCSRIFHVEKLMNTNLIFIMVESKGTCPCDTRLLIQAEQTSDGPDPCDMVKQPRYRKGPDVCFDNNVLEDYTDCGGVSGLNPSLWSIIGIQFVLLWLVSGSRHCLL

| IC50 [nM] | Structure (SMILES) |
| --- | --- |
| 13 | CC1=C(C(=O)OCCN(C)Cc2ccccc2)C(c2cccc(Cl)c2)C2=C(COCCS2(=O)=O)N1 (stereo not drawn) [Compound 7, 5H-[1,4]oxathiepino[6,5-b]pyridine-8-carboxylic acid, 9-(3-chlorophenyl)-2,3,6,9-tetrahydro-7-methyl, 2-[methyl(phenylmethyl)amino]ethyl ester, 1,1-dioxide] |
| 129 | CC1=C(C(=O)OCCN(C)Cc2ccccc2)C(c2ccccc2Cl)C2=C(COCCS2(=O)=O)N1 (stereo not drawn) [Compound 3, 5H-[1,4]oxathiepino[6,5-b]pyridine-8-carboxylic acid, 9-(2-chlorophenyl)-2,3,6,9-tetrahydro-7-methyl, 2-[methyl(phenylmethyl)amino]ethyl ester, 1,1-dioxide] |
| 86 | CC1=C(C(=O)OCCN(C)Cc2ccccc2)C(c2ccccc2[N+](=O)[O-])C2=C(COCCS2(=O)=O)N1 (stereo not drawn) [Compound 8, 5H-[1,4]oxathiepino[6,5-b]pyridine-8-carboxylic acid, 2,3,6,9-tetrahydro-7-methyl-9-(2-nitrophenyl), 2-[methyl(phenylmethyl)amino]ethyl ester, 1,1-dioxide] |
| 34 | COC(=O)C1=C(C)NC2=C(C1c1ccccc1[N+](=O)[O-])S(=O)(=O)CCOC2 (stereo not drawn) [Compound 5, 5H-[1,4]oxathiepino[6,5-b]pyridine-8-carboxylic acid, 2,3,6,9-tetrahydro-7-methyl-9-(2-nitrophenyl), methyl ester, 1,1-dioxide] |
| 46 | COC(=O)C1=C(C)NC2=C(C1c1cccc([N+](=O)[O-])c1)S(=O)(=O)CCOC2 (stereo not drawn) [Compound 4, 5H-[1,4]oxathiepino[6,5-b]pyridine-8-carboxylic acid, 2,3,6,9-tetrahydro-7-methyl-9-(3-nitrophenyl), methyl ester, 1,1-dioxide] |
| 21 | COC(=O)C1=C(C)NC2=C(C1c1cccc(Cl)c1)S(=O)(=O)CCOC2 (stereo not drawn) [Compound 6, 5H-[1,4]oxathiepino[6,5-b]pyridine-8-carboxylic acid, 9-(3-chlorophenyl)-2,3,6,9-tetrahydro-7-methyl, methyl ester, 1,1-dioxide] |
| 39 | CC1=C(C(=O)OCCN(C)Cc2ccccc2)C(c2cccc([N+](=O)[O-])c2)C2=C(COCCS2(=O)=O)N1 (stereo not drawn) [Compound 1, 5H-[1,4]oxathiepino[6,5-b]pyridine-8-carboxylic acid, 2,3,6,9-tetrahydro-7-methyl-9-(3-nitrophenyl), 2-[methyl(phenylmethyl)amino]ethyl ester, 1,1-dioxide] |
| 12 | COC(=O)C1=C(C)NC2=C(C1c1ccccc1Cl)S(=O)(=O)CCOC2 (stereo not drawn) [Compound 2, 5H-[1,4]oxathiepino[6,5-b]pyridine-8-carboxylic acid, 9-(2-chlorophenyl)-2,3,6,9-tetrahydro-7-methyl, methyl ester, 1,1-dioxide] |

Same assay, conditions: 3H-nitrendipine, compounds of Formula IIa (Table 2)

| IC50 [nM] | Structure (SMILES) |
| --- | --- |
| 18 | CC1=C(C(=O)OCc2oc(=O)oc2C)C(c2cccc(Cl)c2Cl)C2=C(COCCS2(=O)=O)N1 (stereo not drawn) [Compound 19, 5H-[1,4]oxathiepino[6,5-b]pyridine-8-carboxylic acid, 9-(2,3-dichlorophenyl)-2,3,6,9-tetrahydro-7-methyl-, (5-methyl-2-oxo-1,3-dioxol4-yl)methyl ester, 1,1-dioxide] |
| 60 | CC1=C(C(=O)OCCOC(=O)C(C)C)C(c2c(F)cccc2Cl)C2=C(COCCS2(=O)=O)N1 (stereo not drawn) [Compound 14, 5H-[1,4]oxathiepino[6,5-b]pyridine-8-carboxylic acid, 9-(2-chloro-6-fluorophenyl)-2,3,6,9-tetrahydro-7-methyl-, 2-(2-methyl-1-oxopropoxy)ethyl ester, 1,1-dioxide] |
| 36 | CC1=C(C(=O)OCCOC(=O)C(C)C)C(c2ccccc2Cl)C2=C(COCCS2(=O)=O)N1 (stereo not drawn) [Compound 17, 5H-[1,4]oxathiepino[6,5-b]pyridine-8-carboxylic acid, 9-(2-chlorophenyl)-2,3,6,9-tetrahydro-7-methyl-, 2-(2-methyl-1-oxopropoxy)ethyl ester, 1,1-dioxide] |
| 4360 | CC1=C(C(=O)OCCO)C(c2c(F)cccc2Cl)C2=C(COCCS2(=O)=O)N1 (stereo not drawn) [Compound 20] |
| 17 | CC1=C(C(=O)OCCOC(=O)c2ccccc2)C(c2c(F)cccc2Cl)C2=C(COCCS2(=O)=O)N1 (stereo not drawn) [Compound 10, 5H-[1,4]oxathiepino[6,5-b]pyridine-8-carboxylic acid, 9-(2-chloro-6-fluorophenyl)-2,3,6,9-tetrahydro-7-methyl-, 2-(benzoyloxy)ethyl ester, 1,1-dioxide] |
| 560 | CC1=C(C(=O)OCCCO)C(c2ccccc2Cl)C2=C(COCCS2(=O)=O)N1 (stereo not drawn) [Compound 21] |
| 21 | CC1=C(C(=O)OCc2oc(=O)oc2-c2ccccc2)C(c2cccc(Cl)c2Cl)C2=C(COCCS2(=O)=O)N1 (stereo not drawn) [Compound 18, 5H-[1,4]oxathiepino[6,5-b]pyridine-8-carboxylic acid, 9-(2,3-dichlorophenyl)-2,3,6,9-tetrahydro-7-methyl-, (2-oxo-5-phenyl-1,3-dioxol-4-yl)methyl ester, 1,1-dioxide] |
| 582 | CC(=O)OCCOC(=O)C1=C(C)NC2=C(C1c1c(F)cccc1Cl)S(=O)(=O)CCOC2 (stereo not drawn) [Compound 12, 5H-[1,4]oxathiepino[6,5-b]pyridine-8-carboxylic acid, 9-(2-chloro-6-fluorophenyl)-2,3,6,9-tetrahydro-7-methyl-, 2-(acetyloxy)ethyl ester, 1,1-dioxide] |
| 96 | CC1=C(C(=O)OCCOC(=O)C2CCCCC2)C(c2c(F)cccc2Cl)C2=C(COCCS2(=O)=O)N1 (stereo not drawn) [Compound 11, 5H-[1,4]oxathiepino[6,5-b]pyridine-8-carboxylic acid, 9-(2-chloro-6-fluorophenyl)-2,3,6,9-tetrahydro-7-methyl-, 2-[(cyclohexylcarbonyl)oxy]ethyl ester, 1,1-dioxide] |
| 40 | CC1=C(C(=O)OCCCOC(=O)c2ccccc2)C(c2ccccc2Cl)C2=C(COCCS2(=O)=O)N1 (stereo not drawn) [Compound 16, 5H-[1,4]oxathiepino[6,5-b]pyridine-8-carboxylic acid, 9-(2-chlorophenyl)-2,3,6,9-tetrahydro-7-methyl-, 3-(benzoyloxy)propyl ester, 1,1-dioxide] |
| 418 | CC1=C(C(=O)OCCOC(=O)C2CC2)C(c2c(F)cccc2Cl)C2=C(COCCS2(=O)=O)N1 (stereo not drawn) [Compound 13, 5H-[1,4]oxathiepino[6,5-b]pyridine-8-carboxylic acid, 9-(2-chloro-6-fluorophenyl)-2,3,6,9-tetrahydro-7-methyl-, 2-[(cyclopropylcarbonyl)oxy]ethyl ester, 1,1-dioxide] |
| 20000 | CC1=C(C(=O)OCCO)C(c2ccccc2Cl)C2=C(COCCS2(=O)=O)N1 (stereo not drawn) [Compound 15, 5H-[1,4]oxathiepino[6,5-b]pyridine-8-carboxylic acid, 9-(2-chlorophenyl)-2,3,6,9-tetrahydro-7-methyl-, 2-hydroxyethyl ester, 1,1-dioxide] |

Tested on: trachea (trachealis muscle tissue)
Assay: Test for inhibition of calcium-dependent smooth muscle contraction (KCl-challenged tracheal rings)
Type: cell-based
Conditions: Canis lupus familiaris, 10 min; dog tracheal rings, 50 mM KCl challenge, test compound added for 10 minutes
Experimental: The trachea and the aorta from dogs sacrificed by excess KCl injection are stored overnight at 4° C. in oxygenated Krebs-Henseleit buffer. Tracheal rings, one cartilage segment wide (5-10 mm), are cut starting from the bronchial end. Rings of aorta tissue of the same width are also prepared. After cutting the cartilage, the trachealis muscle tissue and the aorta tissue are suspended in oxygenated Krebs-Henseleit buffer at 37° C. in a 25 ml tissue bath. After a 60-minute equilibration period, the tissues are challenged with 10 μM carbachol. After 5 minutes, the tissues are rinsed and allowed to rest 50 minutes. The tissues are then challenged with 50 mM KCl and, after 30 minutes, the contractions are quantitated. The tissues are then rinsed and re-equilibrated for 50 minutes. Test compounds are then added for 10 minutes, and the tissue is rechallenged with 50 mM KCl. After 30 minutes, the contraction is recorded and used to determine the % inhibition of control. The percent inhibition of smooth muscle contraction is calculated as follows from response data before and after drug treatment:
% inhibition=100−100×peak response after drug treatment/peak response before drug treatment

| IC50 [nM] | Structure (SMILES) |
| --- | --- |
| 55 | CC1=C(C(=O)OCCN(C)Cc2ccccc2)C(c2ccccc2Cl)C2=C(COCCS2(=O)=O)N1 (stereo not drawn) [Compound 3, 5H-[1,4]oxathiepino[6,5-b]pyridine-8-carboxylic acid, 9-(2-chlorophenyl)-2,3,6,9-tetrahydro-7-methyl, 2-[methyl(phenylmethyl)amino]ethyl ester, 1,1-dioxide] |
